According to patent US20220395464A1, “ORALLY ADMINISTERED SOLID DOSAGE FORM DRUG” (ASCENTAWITS PHARMACEUTICALS, LTD., priority 2019, published 2022):
“Also recorded” adds a separate entry of the source. Where two headings read alike, the source gives them in different places.

What was measured:
[1] = tested on: H460 non-small cell lung cancer; test: In vitro proliferation inhibition assay, 2 h exposure, Alamar Blue, with or without AKR1C3 inhibitor TH3021; assay type: cell-based, human; conditions: for IC50: 2 h exposure, 70 h further incubation
Method: The activities of the compounds were evaluated by a proliferation inhibition assay of active cancer cells in vitro.
In vitro proliferation data for a human tumor cell line of H460 non-small cell lung cancer were reported in a Table of compounds below.
IC50 values were in nanomoles and were obtained by the following procedure. Cells were exposed in the compounds with different concentration for 2 hours. Next, the compounds were washed off, and fresh medium was added into plates. Afterwards, a growth rate and a cell-survival rate were obtained by cell staining and compared with a control treated with the medium only.
Specifically speaking, the exponentially growing cells were seeded in 96-well plates at a density of 4×10^3 cells/well, and incubated for 24 hours at 37° C. in 5% CO2, 95% air and 100% relative humidity. Next, the compounds were added. Complementary, the compounds were dissolved in 100% DMSO at 200 times a desired final test concentration. The compounds were further diluted to 4 times the desired final test concentration with complete medium when the drug was added. A 50 μl aliquot of drug with the specific concentrations of the compounds was added to the 96-well plates already containing 150 μl of medium respectively to get the final test concentration reported. After the drug was added, the 96-well plates were incubated for 2 hours at 37° C. in 5% CO2, 95% air and 100% relative humidity. Then, the drug was washed off, and the 96-well plates were incubated for 70 hours at 37° C. in 5% CO2, 95% air and 100% relative humidity after adding the fresh medium. At the end of this incubation, Alamar Blue assay was used to quantify viable cells. The concentrations of the drug causing 50% growth inhibition (IC50) were calculated using computer software, and results are presented in a table below.
A cancer cell proliferation activity of the compounds with or without AKR1C3 enzyme inhibition was measured with and without adding TH3021 (with a sufficient inhibitory concentration), an inhibitor of AKR1C3.

[2] = tested on: H460 non-small cell lung cancer; conditions: cited from earlier work
[3] = Solution stability study of AST-3424 in different solutions (HPLC content); assay type: physicochemical; conditions: for Time the API is stable in solution / Content: room temperature
Method: 1.3 Solution Stability Study
About 107.32 mg of AST-3424 (50% v/v, ethanol) was taken and placed in a 50 ml-measuring flask. Then, solvents which are an organic solvent, buffer solution or purified water, were respectively added to a scale mark. At each appointed time, 1 ml of samples was measured for HPLC analysis respectively. If the API was stable in the solution with the different pH values, a sampling appointed time was extended, for instance 5 days or more.
In the solubility study, for a determination of sample contents, 1 ml of culture medium were measured respectively, and then centrifuged at 1000 rpm for 10 minutes. Subnatant after centrifugation were collected respectively for HPLC analysis. In the solution stability study, the samples may be provided directly for HPLC analysis.
The contents were determined by a HPLC method: AST-3424 was used as an external standard for quantification.
A wavelength of UVDAD detector was 230 nm. C18 column was used at a temperature of 25° C.

[4] = Solubility study of AST-3424 (shaking at 25° C., HPLC content); assay type: physicochemical; conditions: methanol, propanol, butanol, ethylene glycol, propylene glycol, glycerol, 1,3-butanediol, 1,2-butanediol; initial investigation

With [2H]C([2H])([2H])N(C(=O)c1cccc(Oc2cc([C@H](C)OP(=O)(N3CC3)N3CC3)ccc2[N+](=O)[O-])c1)C([2H])([2H])[2H] [AST-3424-D6] the IC50 ([1]; H460, + TH3021 (inhibitor of AKR1C3)) was 165 nM, the “In vitro activity compared with AST-3424, in words” value ([1]; H460, FIG. 1 and Table 12) was “similar” and the IC50 ([1]; Homo sapiens, NCI-H460, H460, + TH3021 (inhibitor of AKR1C3)) was 109 nM. For the same compound, the IC50 ([1]; Homo sapiens, NCI-H460, H460, without TH3021) was < 4.57 nM.
In the case of C[C@H](OP(=O)(N1CC1)N1CC1)c1ccc([N+](=O)[O-])c(Oc2cccc(C(=O)N(C)C)c2)c1 [AST-3424, (S)-1-(3-(3-N,N-Dimethylaminocarbonyl)phenoxy-4-nitrophenyl)-1-ethyl-N,N′-bis(ethylene) phosphoramidate], the IC50 ([2]; + TH3021 (inhibitor of AKR1C3), (Reference)) is given as 141 nM, the IC50 ([2]; without TH3021, (Reference)) is given as < 4.57 nM and the “Time the API is stable in solution” value ([3]; 1:1 solution of ethanol and propylene glycol) is given as “at least 72 hours”. The Content ([3]; Acetate buffer of pH 4.5, 0 h) was 0.673 mg/mL, the Content ([3]; Acetate buffer of pH 4.5, 1 h) was 0.413 mg/mL and the Content ([3]; Acetate buffer of pH 4.5, 4 h) was 0.218 mg/mL. It also gave a Content ([3]; Acetate buffer of pH 4.5, 8 h) of 0.093 mg/mL, a Content ([3]; Acetate buffer of pH 4.5, 24 h) of 0.013 mg/mL and a Content ([3]; Alkaline borate buffer of pH 10.0, 0 h) of 1.265 mg/mL. For the same compound, the Content ([3]; Alkaline borate buffer of pH 10.0, 1 h) was 1.165 mg/mL, the Content ([3]; Alkaline borate buffer of pH 10.0, 4 h) was 1.261 mg/mL and the Content ([3]; Alkaline borate buffer of pH 10.0, 8 h) was 1.258 mg/mL. For the same compound, the Content ([3]; Alkaline borate buffer of pH 10.0, 24 h) was 1.261 mg/mL, the Content ([3]; Alkaline borate buffer of pH 10.0, 48 h) was 1.257 mg/mL and the Content ([3]; Alkaline borate buffer of pH 10.0, 72 h) was 1.242 mg/mL. The Content ([3]; Ethanol/Propylene glycol (50:50, v/v), 0 h) was 1.295 mg/mL, the Content ([3]; Ethanol/Propylene glycol (50:50, v/v), 1 h) was 1.287 mg/mL and the Content ([3]; Ethanol/Propylene glycol (50:50, v/v), 4 h) was 1.287 mg/mL. It also gave a Content ([3]; Ethanol/Propylene glycol (50:50, v/v), 8 h) of 1.287 mg/mL, a Content ([3]; Ethanol/Propylene glycol (50:50, v/v), 24 h) of 1.302 mg/mL and a Content ([3]; Ethanol/Propylene glycol (50:50, v/v), 48 h) of 1.284 mg/mL. For the same compound, the Content ([3]; Ethanol/Propylene glycol (50:50, v/v), 72 h) was 1.275 mg/mL, the Content ([3]; Ethanol, 0 h) was 1.238 mg/mL and the Content ([3]; Ethanol, 1 h) was 1.280 mg/mL. For the same compound, the Content ([3]; Ethanol, 4 h) was 1.246 mg/mL, the Content ([3]; Ethanol, 8 h) was 1.240 mg/mL and the Content ([3]; Ethanol, 24 h) was 1.240 mg/mL. It also gave a Content ([3]; Ethanol, 48 h) of 1.278 mg/mL, a Content ([3]; Ethanol, 72 h) of 1.236 mg/mL and a Content ([3]; Phosphate buffer of pH 6.8, 0 h) of 1.202 mg/mL. For the same compound, the Content ([3]; Phosphate buffer of pH 6.8, 1 h) was 1.200 mg/mL, the Content ([3]; Phosphate buffer of pH 6.8, 4 h) was 1.193 mg/mL and the Content ([3]; Phosphate buffer of pH 6.8, 8 h) was 1.185 mg/mL. For the same compound, the Content ([3]; Phosphate buffer of pH 6.8, 24 h) was 1.168 mg/mL, the Content ([3]; Phosphate buffer of pH 6.8, 48 h) was 1.145 mg/mL and the Content ([3]; Phosphate buffer of pH 6.8, 72 h) was 1.102 mg/mL. The Content ([3]; Phosphate buffer of pH 7.4, 0 h) was 1.267 mg/mL, the Content ([3]; Phosphate buffer of pH 7.4, 1 h) was 1.266 mg/mL and the Content ([3]; Phosphate buffer of pH 7.4, 4 h) was 1.266 mg/mL. It also gave a Content ([3]; Phosphate buffer of pH 7.4, 8 h) of 1.262 mg/mL, a Content ([3]; Phosphate buffer of pH 7.4, 24 h) of 1.262 mg/mL and a Content ([3]; Phosphate buffer of pH 7.4, 48 h) of 1.249 mg/mL. The Content ([3]; Phosphate buffer of pH 7.4, 72 h) was 1.228 mg/mL, the Content ([3]; Purified water, 0 h) was 1.186 mg/mL and the Content ([3]; Purified water, 1 h) was 1.126 mg/mL. It also gave a Content ([3]; Purified water, 4 h) of 1.056 mg/mL, a Content ([3]; Purified water, 8 h) of 1.005 mg/mL and a Content ([3]; Purified water, 24 h) of 0.918 mg/mL. For the same compound, the Content ([3]; Purified water, 48 h) was 0.860 mg/mL, the Content ([3]; Purified water, 72 h) was 0.810 mg/mL and the “Solution stability, in words” value ([3]; acetate buffer of pH 4.5) was “unstable; also recorded: very unstable”. For the same compound, the “Time the API is stable in solution” value ([3]; buffer of pH 7.4) was “at least 72 hours”, the “Time the API is stable in solution” value ([3]; buffer of pH 10.0) was “at least 72 hours” and the “Time the API is stable in solution” value ([3]; ethanol) was “at least 72 hours”. The “Solution stability, in words” value ([3]; phosphate buffer of pH 6.8) was “unstable; also recorded: less stable”, the “Solution stability, in words” value ([3]; phosphate buffer of pH 7.4) was “stable” and the “Solution stability, in words” value ([3]; purified water) was “unstable; also recorded: less stable”. For the same compound, the “Time the API is stable in solution” value ([3]; solution of pH 6.8) was “at least 24 hours” and the “Solubility, in words” value [4] was “good solubility”.
